Publication PMC9520775, “Everolimus pharmacokinetics and exposure-response relationship in Japanese patients with advanced breast cancer” (Frontiers in Pharmacology, 2022)

Tested on: patients with advanced or metastatic breast cancer
Assay: Adverse events (CTCAE Ver. 4.0), dose-limiting toxicities and dose reductions under everolimus
Type: in vivo, human
From the text: This was a prospective, observational PK study. Patients with advanced or metastatic breast cancer who received everolimus between November 2015 and November 2018 at Kobe City Medical Center General Hospital were enrolled in this study. The main inclusion criteria included the following: age ≥20 years; Eastern Cooperative Oncology Group (ECOG) performance status (PS): 0 or 1; and adequate bone marrow, liver, and renal function. The main exclusion criteria were interstitial pneumonia or pulmonary fibrosis, HBsAg positive, and psychiatric or psychological symptoms that made it difficult to participate in the study. Every participant provided written informed consent. This study was conducted in accordance with the Declaration of Helsinki and approved by the Institutional Review Board, under Approval Number zn151103.
Based on the physician’s decision, the patients were prescribed a starting dose of either 5 or 10 mg everolimus once daily. The everolimus dose was reduced when a patient experienced adverse events higher than grade 2. The first reduced dose was 5 mg once daily, followed by the second reduced dose of 2.5 mg once daily or 5 mg every alternate day. In addition, everolimus doses could be increased if adverse events improved to grade 1 or less, or deemed inefficacious. The adverse events were evaluated weekly for the first month and then every 1–4 weeks, according to the Common Terminology Criteria for Adverse Events Ver. 4.0.
Statistical differences in everolimus trough concentrations, doses and body weights between patient cohorts were assessed using the Mann–Whitney test. Progression-free survival (PFS) was assessed using the Kaplan-Meier method and the log-rank test. All statistical analyses were performed using GraphPad Prism version 7.03 (San Diego, CA). p < 0.05 was considered statistically significant.

[1] = Initial dose: 5 mg/day (n = 6), Grade 3
[2] = Initial dose: 5 mg/day (n = 6), Grade 4
[3] = Initial dose: 5 mg/day (n = 6), Grade All
[4] = Initial dose: 10 mg/day (n = 12), Grade 1
[5] = Initial dose: 10 mg/day (n = 12), Grade 2
[6] = Initial dose: 10 mg/day (n = 12), Grade 3
[7] = Initial dose: 10 mg/day (n = 12), Grade 4
[8] = Initial dose: 10 mg/day (n = 12), Grade All

SMILES: CO[C@H]1C[C@@H]2CC[C@@H](C)[C@@](O)(O2)C(=O)C(=O)N2CCCC[C@H]2C(=O)O[C@H]([C@H](C)C[C@@H]2CC[C@@H](OCCO)[C@H](OC)C2)CC(=O)[C@H](C)/C=C(\C)[C@@H](O)[C@@H](OC)C(=O)[C@H](C)C[C@H](C)/C=C/C=C/C=C/1C [everolimus]
- Adverse event, n: Diarrhea [1]: 0
- Adverse event, n: Dysgeusia [1]: 0
- Adverse event, n: Epistaxis [1]: 0
- Adverse event, n: High cholesterol [1]: 0
- Adverse event, n: Hyperglycemia [1]: 0
- Adverse event, n: Hypertriglyceridemia [1]: 0
- Adverse event, n: Hypokalemia [1]: 1
- Adverse event, n: Interstitial lung disease [1]: 0
- Adverse event, n: Malaise [1]: 0
- Adverse event, n: Mucositis oral [1]: 0
- Adverse event, n: Neutrophil count decreased [1]: 0
- Adverse event, n: Platelet decrease [1]: 0
- Adverse event, n: Rash [1]: 0
- Adverse event, n: Diarrhea [2]: 0
- Adverse event, n: Dysgeusia [2]: 0
- Adverse event, n: Epistaxis [2]: 0
- Adverse event, n: High cholesterol [2]: 0
- Adverse event, n: Hyperglycemia [2]: 0
- Adverse event, n: Hypertriglyceridemia [2]: 0
- Adverse event, n: Hypokalemia [2]: 0
- Adverse event, n: Interstitial lung disease [2]: 0
- Adverse event, n: Malaise [2]: 0
- Adverse event, n: Mucositis oral [2]: 0
- Adverse event, n: Neutrophil count decreased [2]: 0
- Adverse event, n: Platelet decrease [2]: 0
- Adverse event, n: Rash [2]: 0
- Adverse event, n: Diarrhea [3]: 1
- Adverse event, n: Dysgeusia [3]: 2
- Adverse event, n: Epistaxis [3]: 2
- Adverse event, n: High cholesterol [3]: 4
- Adverse event, n: Hyperglycemia [3]: 2
- Adverse event, n: Hypertriglyceridemia [3]: 3
- Adverse event, n: Hypokalemia [3]: 3
- Adverse event, n: Interstitial lung disease [3]: 1
- Adverse event, n: Malaise [3]: 2
- Adverse event, n: Mucositis oral [3]: 6
- Adverse event, n: Neutrophil count decreased [3]: 0
- Adverse event, n: Platelet decrease [3]: 2
- Adverse event, n: Rash [3]: 4
- Adverse event, n: Diarrhea [4]: 1
- Adverse event, n: Dysgeusia [4]: 3
- Adverse event, n: Epistaxis [4]: 4
- Adverse event, n: High cholesterol [4]: 5
- Adverse event, n: Hyperglycemia [4]: 2
- Adverse event, n: Hypertriglyceridemia [4]: 6
- Adverse event, n: Hypokalemia [4]: 4
- Adverse event, n: Interstitial lung disease [4]: 3
- Adverse event, n: Malaise [4]: 5
- Adverse event, n: Mucositis oral [4]: 5
- Adverse event, n: Neutrophil count decreased [4]: 2
- Adverse event, n: Platelet decrease [4]: 7
- Adverse event, n: Rash [4]: 8
- Adverse event, n: Diarrhea [5]: 3
- Adverse event, n: Dysgeusia [5]: 0
- Adverse event, n: Epistaxis [5]: 0
- Adverse event, n: High cholesterol [5]: 2
- Adverse event, n: Hyperglycemia [5]: 1
- Adverse event, n: Hypertriglyceridemia [5]: 3
- Adverse event, n: Hypokalemia [5]: 1
- Adverse event, n: Interstitial lung disease [5]: 1
- Adverse event, n: Malaise [5]: 0
- Adverse event, n: Mucositis oral [5]: 6
- Adverse event, n: Neutrophil count decreased [5]: 3
- Adverse event, n: Platelet decrease [5]: 0
- Adverse event, n: Rash [5]: 2
- Adverse event, n: Diarrhea [6]: 0
- Adverse event, n: Dysgeusia [6]: 0
- Adverse event, n: Epistaxis [6]: 0
- Adverse event, n: High cholesterol [6]: 0
- Adverse event, n: Hyperglycemia [6]: 0
- Adverse event, n: Hypertriglyceridemia [6]: 0
- Adverse event, n: Hypokalemia [6]: 0
- Adverse event, n: Interstitial lung disease [6]: 0
- Adverse event, n: Malaise [6]: 0
- Adverse event, n: Mucositis oral [6]: 0
- Adverse event, n: Neutrophil count decreased [6]: 1
- Adverse event, n: Platelet decrease [6]: 0
- Adverse event, n: Rash [6]: 0
- Adverse event, n: Diarrhea [7]: 0
- Adverse event, n: Dysgeusia [7]: 0
- Adverse event, n: Epistaxis [7]: 0
- Adverse event, n: High cholesterol [7]: 0
- Adverse event, n: Hyperglycemia [7]: 0
- Adverse event, n: Hypertriglyceridemia [7]: 0
- Adverse event, n: Hypokalemia [7]: 1
- Adverse event, n: Interstitial lung disease [7]: 0
- Adverse event, n: Malaise [7]: 0
- Adverse event, n: Mucositis oral [7]: 0
- Adverse event, n: Neutrophil count decreased [7]: 0
- Adverse event, n: Platelet decrease [7]: 0
- Adverse event, n: Rash [7]: 0
- Adverse event, n: Diarrhea [8]: 4
- Adverse event, n: Dysgeusia [8]: 3
- Adverse event, n: Epistaxis [8]: 4
- Adverse event, n: High cholesterol [8]: 7
- Adverse event, n: Hyperglycemia [8]: 3
- Adverse event, n: Hypertriglyceridemia [8]: 9
- Adverse event, n: Hypokalemia [8]: 6
- Adverse event, n: Interstitial lung disease [8]: 4
- Adverse event, n: Malaise [8]: 5
- Adverse event, n: Mucositis oral [8]: 11
- Adverse event, n: Neutrophil count decreased [8]: 6
- Adverse event, n: Platelet decrease [8]: 7
- Adverse event, n: Rash [8]: 10
- stomatitis, incidence, all grade (all patients, n = 18): 94%
- proportion of all patients who required a second dose reduction (from the starting dose of 10 mg (7/18)): 39%
- number of patients with dose-limiting toxicities (DLTs) (of 18 patients, during the 10 months of the study period): 13
- proportion of patients who required dose reduction owing to adverse drug reactions (starting dose of 5 mg (5/6)): 83%
- DLT while being treated with clarithromycin (three patients, clarithromycin 200 mg twice daily for 7 days (CYP3A4 inhibitor) during everolimus treatment): no DLT
